According to PubChem BioAssay AID248 (DTP/NCI, 2004):
Inconclusive results and toxic doses are left out. No stated cut-off is given here; in the data, active means T/C of 150% or more; inactive means T/C below 125%.

Tested on: L1210 leukemia ip in BDF1 mice, survival T/C
Test: NCI In Vivo Anticancer Drug Screen. Data for tumor model L1210 Leukemia (intraperitoneal) in B6D2F1 (BDF1) mice
Conditions: endpoint: mean survival time, higher = longer survival
How it was run: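 Antitumor effect is assessed in tumor-bearing animals. Survival in the compound arm is compared with a vehicle-dosed control arm and expressed as their quotient.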

[1] = dose: 100.0 mg/kg/injection, schedule: Q01DX001 (ip), vehicle: Klucel (hydroxypropylcellulose) (HPC)
[2] = dose: 200.0 mg/kg/injection, schedule: Q01DX001 (ip), vehicle: Klucel (hydroxypropylcellulose) (HPC)
[3] = dose: 100.0 mg/kg/injection, schedule: Q01DX009 (ip), vehicle: saline with Tween-80
[4] = dose: 200.0 mg/kg/injection, schedule: Q01DX009 (ip), vehicle: saline with Tween-80
[5] = dose: 50.0 mg/kg/injection, schedule: Q01DX001 (ip), vehicle: Klucel (hydroxypropylcellulose) (HPC)
[6] = dose: 100.0 mg/kg/injection, schedule: Q01DX009 (ip), vehicle: Klucel (hydroxypropylcellulose) (HPC)
[7] = dose: 100.0 mg/kg/injection, schedule: Q04DX003 (ip), vehicle: Klucel (hydroxypropylcellulose) (HPC)
[8] = dose: 200.0 mg/kg/injection, schedule: Q01DX009 (ip), vehicle: Klucel (hydroxypropylcellulose) (HPC)
[9] = dose: 200.0 mg/kg/injection, schedule: Q04DX003 (ip), vehicle: Klucel (hydroxypropylcellulose) (HPC)
[10] = dose: 400.0 mg/kg/injection, schedule: Q04DX003 (ip), vehicle: Klucel (hydroxypropylcellulose) (HPC)
[11] = dose: 25.0 mg/kg/injection, schedule: Q01DX009 (ip), vehicle: Klucel (hydroxypropylcellulose) (HPC)
[12] = dose: 50.0 mg/kg/injection, schedule: Q01DX009 (ip), vehicle: Klucel (hydroxypropylcellulose) (HPC)
[13] = dose: 100.0 mg/kg/injection, schedule: Q04DX002 (ip), vehicle: Klucel (hydroxypropylcellulose) (HPC)
[14] = dose: 200.0 mg/kg/injection, schedule: Q04DX002 (ip), vehicle: Klucel (hydroxypropylcellulose) (HPC)
[15] = dose: 100.0 mg/kg/injection, schedule: Q04DX003 (ip), vehicle: saline
[16] = dose: 200.0 mg/kg/injection, schedule: Q04DX003 (ip), vehicle: saline
[17] = dose: 400.0 mg/kg/injection, schedule: Q04DX003 (ip), vehicle: saline
[18] = dose: 100.0 mg/kg/injection, schedule: Q04DX002 (ip), vehicle: saline with Tween-80
[19] = dose: 200.0 mg/kg/injection, schedule: Q04DX002 (ip), vehicle: saline with Tween-80
[20] = dose: 400.0 mg/kg/injection, schedule: Q04DX002 (ip), vehicle: Klucel (hydroxypropylcellulose) (HPC)
[21] = dose: 100.0 mg/kg/injection, schedule: Q04DX003 (ip), vehicle: saline with Tween-80
[22] = dose: 200.0 mg/kg/injection, schedule: Q04DX003 (ip), vehicle: saline with Tween-80
[23] = dose: 400.0 mg/kg/injection, schedule: Q04DX003 (ip), vehicle: saline with Tween-80
[24] = dose: 400.0 mg/kg/injection, schedule: Q04DX002 (ip), vehicle: saline with Tween-80
[25] = dose: 100.0 mg/kg/injection, schedule: Q04DX002 (ip), vehicle: saline
[26] = dose: 200.0 mg/kg/injection, schedule: Q04DX002 (ip), vehicle: saline
[27] = dose: 400.0 mg/kg/injection, schedule: Q04DX002 (ip), vehicle: saline
[28] = dose: 100.0 mg/kg/injection, schedule: Q01DX009 (ip), vehicle: other
[29] = dose: 200.0 mg/kg/injection, schedule: Q01DX009 (ip), vehicle: other

Measured: T/C

Cc1ccc(-n2c(O)c(N=Nc3ccccc3C)c(=O)n(-c3ccccc3)c2=S)cc1
inactive: [1] 94 % of control | [2] 104 % of control | dose: 400.0 mg/kg/injection, schedule: Q01DX001 (ip), vehicle: Klucel (hydroxypropylcellulose) (HPC) 99 % of control

O=[N+]([O-])c1cc(Cl)ccc1N1CCCC1
inactive: [3] 89 % of control | [4] 99 % of control

O=c1[nH]c(CCCOc2ccccc2)nc2ccccc12
inactive: [5] 93 % of control | [1] 104 % of control | [2] 104 % of control

O=C(Nc1cccc(C(F)(F)F)c1)Oc1ccc(Cl)cc1Cc1ccccc1
inactive: [3] 98 % of control | [4] 93 % of control | dose: 400.0 mg/kg/injection, schedule: Q01DX009 (ip), vehicle: saline with Tween-80 92 % of control

CCCCNC(=O)NC(C(=O)OCC)C(=O)OCC
inactive: [6] 97 % of control | [7] 100 % of control | [8] 102 % of control | [9] 100 % of control | dose: 400.0 mg/kg/injection, schedule: Q01DX009 (ip), vehicle: Klucel (hydroxypropylcellulose) (HPC) 96 % of control | [10] 102 % of control

O=C1c2ccccc2C(Cl)=C(Cl)C1(Cl)Cl
inactive: [11] 90 % of control | [12] 90 % of control | [6] 90 % of control | [7] 96 % of control

O=C(c1ccccc1CO)N1CCCCC1
inactive: [13] 112 % of control | [14] 105 % of control

CC(=O)Nc1c(Cl)c(Cl)c2c(c1Cl)Cc1cc(Cl)ccc1-2
inactive: dose: 100.0 mg/kg/injection, schedule: Q01DX009 (ip), vehicle: acetone 90 % of control | [15] 93 % of control | dose: 200.0 mg/kg/injection, schedule: Q01DX009 (ip), vehicle: acetone 93 % of control | [16] 91 % of control | dose: 400.0 mg/kg/injection, schedule: Q01DX009 (ip), vehicle: acetone 95 % of control | [17] 91 % of control

CCCN(CCC)C(=S)CC
inactive: [18] 94 % of control | [19] 98 % of control

Cc1cccc(C)c1NCC(=O)NN
inactive: [13] 106 % of control | [14] 106 % of control | [20] 120 % of control

CCOC(=O)CCCN(C(=O)c1ccccc1)c1scc(-c2ccccc2)c1C(=O)OCC
inactive: dose: 50.0 mg/kg/injection, schedule: Q04DX003 (ip), vehicle: saline with Tween-80 92 % of control | [21] 95 % of control | [22] 94 % of control | [23] 103 % of control

Fc1c(F)c(F)c(Oc2nc(-c3ccccc3)nc(-c3ccccc3)n2)c(F)c1F
inactive: dose: 25.6 mg/kg/injection, schedule: Q04DX002 (ip), vehicle: saline with Tween-80 92 % of control | dose: 64.0 mg/kg/injection, schedule: Q04DX002 (ip), vehicle: saline with Tween-80 106 % of control | dose: 160.0 mg/kg/injection, schedule: Q04DX002 (ip), vehicle: saline with Tween-80 100 % of control | [24] 95 % of control

CC(C)=C1C2CCC1NN2
inactive: [5] 108 % of control

C/C=C/c1ccc(OC)cc1
inactive: [25] 104 % of control | [26] 104 % of control | [27] 97 % of control

CCOC(=O)N(CCC(=O)OC(C)(C)C)CC(=O)OC(C)(C)C
inactive: dose: 75.0 mg/kg/injection, schedule: Q01DX001 (ip), vehicle: saline 92 % of control | dose: 150.0 mg/kg/injection, schedule: Q01DX001 (ip), vehicle: saline 95 % of control | dose: 300.0 mg/kg/injection, schedule: Q01DX001 (ip), vehicle: saline 101 % of control

Cc1noc2ncnc(N)c12
inactive: [11] 102 % of control | [12] 102 % of control | [6] 95 % of control

COC(=O)c1ccccc1N(C)C(=O)c1ccccc1
inactive: [7] 102 % of control | [9] 107 % of control | [10] 109 % of control

CCC(C)C(N)C(=O)OCc1ccccc1 (centres undefined)
inactive: [12] 88 % of control | [6] 90 % of control | [13] 95 % of control | [8] 92 % of control | [14] 92 % of control | [20] 89 % of control

CCCCC(=O)N1CCOCC1
inactive: [25] 107 % of control | [26] 101 % of control | [27] 107 % of control

COc1ccc(CCNC(=O)/C=C\C(=O)O)cc1OC
inactive: [21] 100 % of control | [22] 98 % of control | [23] 96 % of control

O=C(O)c1ccccc1/C=C/c1ccc([N+](=O)[O-])cc1
inactive: dose: 100.0 mg/kg/injection, schedule: Q01DX001 (ip), vehicle: saline with Tween-80 97 % of control

CCNc1nc(Cl)nc(C(Cl)(Cl)Cl)c1Cl (tested in a mixture with another compound)
inactive: [13] 104 % of control | [14] 96 % of control | [20] 100 % of control

O=C(Nc1ccccc1Br)c1ccc(Cl)cc1Cl
inactive: dose: 75.0 mg/kg/injection, schedule: Q01DX009 (ip), vehicle: Klucel (hydroxypropylcellulose) (HPC) 96 % of control | [13] 93 % of control | dose: 150.0 mg/kg/injection, schedule: Q01DX009 (ip), vehicle: Klucel (hydroxypropylcellulose) (HPC) 96 % of control | [14] 107 % of control | dose: 300.0 mg/kg/injection, schedule: Q01DX009 (ip), vehicle: Klucel (hydroxypropylcellulose) (HPC) 100 % of control | [20] 97 % of control

CNC1C(=O)C2CCC(C2)C1c1ccccc1 (centres undefined)
inactive: dose: 100.0 mg/kg/injection, schedule: Q01DX001 (ip), vehicle: saline 108 % of control | dose: 200.0 mg/kg/injection, schedule: Q01DX001 (ip), vehicle: saline 100 % of control | dose: 400.0 mg/kg/injection, schedule: Q01DX001 (ip), vehicle: saline 96 % of control

OCc1cc(Cl)ccc1O
inactive: [28] 91 % of control | dose: 100.0 mg/kg/injection, schedule: Q04DX003 (ip), vehicle: other 103 % of control | [29] 120 % of control | dose: 200.0 mg/kg/injection, schedule: Q04DX003 (ip), vehicle: other 95 % of control | dose: 400.0 mg/kg/injection, schedule: Q04DX003 (ip), vehicle: other 93 % of control

CN1C(=O)C(Br)C(Br)c2ccccc21 (centres undefined)
inactive: dose: 100.0 mg/kg/injection, schedule: Q01DX001 (ip), vehicle: other 107 % of control | dose: 200.0 mg/kg/injection, schedule: Q01DX001 (ip), vehicle: other 102 % of control

Cc1cc(Br)cc(C(=O)Cl)c1O
inactive: [18] 92 % of control | [19] 96 % of control | [24] 100 % of control

Nc1ccccc1SC1CC(=O)N(c2ccccc2)C1=O (centres undefined)
inactive: [28] 95 % of control | [15] 94 % of control | [29] 92 % of control | [16] 89 % of control | dose: 400.0 mg/kg/injection, schedule: Q01DX009 (ip), vehicle: other 92 % of control | [17] 91 % of control

COc1ccc(NC(=O)c2ccc(Cl)cc2Cl)cc1
inactive: [13] 111 % of control | [14] 104 % of control | [20] 101 % of control

COc1cccc(C(=O)NC[n+]2ccccc2)c1
inactive: dose: 25.0 mg/kg/injection, schedule: Q01DX009 (ip), vehicle: saline 92 % of control | dose: 25.0 mg/kg/injection, schedule: Q04DX003 (ip), vehicle: saline 96 % of control | dose: 50.0 mg/kg/injection, schedule: Q01DX009 (ip), vehicle: saline 87 % of control | dose: 50.0 mg/kg/injection, schedule: Q04DX003 (ip), vehicle: saline 86 % of control | [15] 100 % of control
